Source: PubChem BioAssay (NCI)
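In this assay, cells in 96-well plates receive the compound at five concentrations for 48 hours. Endpoints are linearly interpolated between the surrounding concentrations. GI50 marks 50% less growth. TGI: total growth inhibition.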

Tests used:
Assay in all cases: NCI-60 cell line screen, 48 h
[1] = test system: 786-0 renal
[2] = test system: A498 renal
[3] = test system: A549 NSCLC
[4] = test system: ACHN renal
[5] = test system: CAKI-1 renal
[6] = test system: CCRF-CEM leukemia
[7] = test system: COLO 205 colon
[8] = test system: DLD-1 colon
[9] = test system: DMS 114 small cell lung
[10] = test system: DMS 273 small cell lung
[11] = test system: EKVX NSCLC
[12] = test system: HCC-2998 colon
[13] = test system: HCT-116 colon
[14] = test system: HCT-15 colon
[15] = test system: HL-60(TB) leukemia
[16] = test system: HOP-18 NSCLC
[17] = test system: HOP-62 NSCLC
[18] = test system: HOP-92 NSCLC
[19] = test system: HT29 colon
[20] = test system: IGROV1 ovarian
[21] = test system: K-562 leukemia
[22] = test system: KM12 colon
[23] = test system: KM20L2 colon
[24] = test system: LOX IMVI melanoma
[25] = test system: LXFL 529 NSCLC
[26] = test system: M14 melanoma
[27] = test system: M19-MEL melanoma
[28] = test system: MALME-3M melanoma
[29] = test system: MOLT-4 leukemia
[30] = test system: NCI-H226 lung
[31] = test system: NCI-H23 lung
[32] = test system: NCI-H460 lung
[33] = test system: NCI-H522 lung
[34] = test system: OVCAR-3 ovarian
[35] = test system: OVCAR-4 ovarian
[36] = test system: OVCAR-5 ovarian
[37] = test system: OVCAR-8 ovarian
[38] = test system: RPMI-8226 leukemia
[39] = test system: RXF 393 renal
[40] = test system: SF-268 CNS
[41] = test system: SF-295 CNS
[42] = test system: SF-539 CNS
[43] = test system: SK-MEL-2 melanoma
[44] = test system: SK-MEL-28 melanoma
[45] = test system: SK-MEL-5 melanoma
[46] = test system: SK-OV-3 ovarian
[47] = test system: SN12C renal
[48] = test system: SNB-19 CNS
[49] = test system: SNB-75 CNS
[50] = test system: SNB-78 CNS
[51] = test system: SR leukemia
[52] = test system: SW-620 colon
[53] = test system: TK-10 renal
[54] = test system: U251 CNS
[55] = test system: UACC-257 melanoma
[56] = test system: UACC-62 melanoma
[57] = test system: UO-31 renal
[58] = test system: XF 498 CNS
[59] = test system: BT-549 breast
[60] = test system: HS 578T breast
[61] = test system: MCF7 breast
[62] = test system: MDA-MB-231 breast
[63] = test system: MDA-MB-435
[64] = test system: MDA-N
[65] = test system: NCI/ADR-RES ovarian
[66] = test system: PC-3 prostate
[67] = test system: T-47D breast

Cc1cc(S(=O)(=O)O)c(NC(=O)C(=O)C2C=CCS2(=O)=O)cc1Cl (stereo unspecified) gave a TGI [1] of over 100 µM, a TGI [2] of over 100 µM and a TGI [3] of over 100 µM. For the same compound, the TGI [4] was over 100 µM, the TGI [5] was over 100 µM and the TGI [6] was over 100 µM. It also gave a TGI [7] of over 100 µM, a TGI [8] of over 100 µM and a TGI [9] of over 100 µM. The TGI [10] was over 100 µM, the TGI [11] was over 100 µM and the TGI [12] was over 100 µM. For the same compound, the TGI [13] was over 100 µM, the TGI [14] was over 100 µM and the TGI [15] was over 100 µM. For the same compound, the TGI [16] was over 100 µM, the TGI [17] was over 100 µM and the TGI [18] was over 100 µM. The TGI [19] was over 100 µM, the TGI [20] was over 100 µM and the TGI [21] was over 100 µM. For the same compound, the TGI [22] was over 100 µM, the TGI [23] was over 100 µM and the TGI [24] was over 100 µM. For the same compound, the TGI [25] was over 100 µM, the TGI [26] was over 100 µM and the TGI [27] was over 100 µM. For the same compound, the TGI [28] was over 100 µM, the TGI [29] was over 100 µM and the TGI [30] was over 100 µM. The TGI [31] was over 100 µM, the TGI [32] was over 100 µM and the TGI [33] was over 100 µM. The TGI [34] was over 100 µM, the TGI [35] was over 100 µM and the TGI [36] was over 100 µM. For the same compound, the TGI [37] was over 100 µM, the TGI [38] was over 100 µM and the TGI [39] was over 100 µM. The TGI [40] was over 100 µM, the TGI [41] was over 100 µM and the TGI [42] was over 100 µM. For the same compound, the TGI [43] was over 100 µM, the TGI [44] was over 100 µM and the TGI [45] was over 100 µM. The TGI [46] was over 100 µM, the TGI [47] was over 100 µM and the TGI [48] was over 100 µM. It also gave a TGI [49] of over 100 µM, a TGI [50] of over 100 µM and a TGI [51] of over 100 µM. It also gave a TGI [52] of over 100 µM, a TGI [53] of over 100 µM and a TGI [54] of over 100 µM. For the same compound, the TGI [55] was over 100 µM, the TGI [56] was over 100 µM and the TGI [57] was over 100 µM. It also gave a TGI [58] of over 100 µM.

COc1cccc(/C=N/[N-]C(N)=O)c1[O-].[Ni+2].[OH3+].c1cnc2c(c1)ccc1cccnc12 was tested, and the TGI [1] was over 100 µM, the TGI [2] was over 100 µM and the TGI [3] was over 100 µM. It also gave a TGI [4] of over 100 µM, a TGI [5] of over 100 µM and a TGI [6] of over 100 µM. The TGI [7] was over 100 µM, the TGI [13] was over 100 µM and the TGI [14] was over 100 µM. For the same compound, the GI50 [15] was 69.5 µM, the TGI [15] was over 100 µM and the TGI [17] was over 100 µM. The TGI [18] was over 100 µM, the TGI [19] was over 100 µM and the TGI [20] was over 100 µM. It also gave a TGI [21] of over 100 µM, a TGI [22] of over 100 µM and a TGI [23] of over 100 µM. For the same compound, the TGI [24] was over 100 µM, the TGI [26] was over 100 µM and the TGI [28] was over 100 µM. It also gave a TGI [29] of over 100 µM, a TGI [30] of over 100 µM and a TGI [31] of over 100 µM. It also gave a TGI [32] of over 100 µM, a TGI [34] of over 100 µM and a TGI [35] of over 100 µM. For the same compound, the TGI [36] was over 100 µM, the TGI [37] was over 100 µM and the TGI [38] was over 100 µM. The TGI [40] was over 100 µM, the TGI [41] was over 100 µM and the TGI [42] was over 100 µM. For the same compound, the TGI [43] was over 100 µM, the TGI [44] was over 100 µM and the TGI [45] was over 100 µM. It also gave a TGI [46] of over 100 µM, a TGI [47] of over 100 µM and a TGI [48] of over 100 µM. The TGI [49] was over 100 µM, the TGI [51] was over 100 µM and the TGI [52] was over 100 µM. For the same compound, the TGI [53] was over 100 µM, the TGI [54] was over 100 µM and the TGI [55] was over 100 µM. It also gave a TGI [56] of over 100 µM and a TGI [57] of over 100 µM.

In the case of COc1ccccc1NC(=O)C1=C(C)NC(C)=C(C(=O)Nc2ccccc2OC)C1c1ccc(C)cc1, the TGI [1] is reported as over 100 µM, the TGI [2] is reported as 82.7 µM and the TGI [4] is reported as over 100 µM. It also gave a TGI [5] of over 100 µM, a TGI [7] of 44 µM and a TGI [9] of over 100 µM. For the same compound, the TGI [10] was over 100 µM, the TGI [11] was over 100 µM and the TGI [12] was over 100 µM. The TGI [13] was over 100 µM, the TGI [14] was over 100 µM and the TGI [16] was over 100 µM. It also gave a TGI [17] of over 100 µM, a TGI [18] of over 100 µM and a TGI [19] of over 100 µM. It also gave a TGI [20] of over 100 µM, a TGI [21] of over 100 µM and a TGI [22] of over 100 µM. The TGI [23] was over 100 µM, the TGI [24] was over 100 µM and the TGI [25] was over 100 µM. The TGI [26] was over 100 µM, the TGI [27] was over 100 µM and the TGI [28] was over 100 µM. The TGI [30] was over 100 µM, the TGI [31] was over 100 µM and the TGI [32] was over 100 µM. The TGI [33] was over 100 µM, the TGI [34] was over 100 µM and the TGI [35] was over 100 µM. The TGI [36] was over 100 µM, the TGI [37] was over 100 µM and the TGI [38] was over 100 µM. For the same compound, the TGI [39] was over 100 µM, the TGI [40] was over 100 µM and the TGI [41] was over 100 µM. For the same compound, the TGI [42] was over 100 µM, the TGI [43] was over 100 µM and the TGI [44] was over 100 µM. For the same compound, the TGI [45] was over 100 µM, the TGI [46] was over 100 µM and the TGI [47] was over 100 µM. It also gave a TGI [48] of over 100 µM, a TGI [49] of over 100 µM and a TGI [50] of over 100 µM. It also gave a TGI [52] of over 100 µM, a TGI [53] of over 100 µM and a TGI [54] of over 100 µM. For the same compound, the TGI [55] was over 100 µM, the TGI [56] was over 100 µM and the TGI [57] was over 100 µM. It also gave a TGI [58] of over 100 µM.

In the case of COc1ccc2c(c1)N=C1CSC(c3ccccc3Cl)N1C2 (stereo unspecified), the TGI [1] is reported as 31.6 µM, the TGI [3] is reported as 31.9 µM and the TGI [4] is reported as 41.8 µM. For the same compound, the TGI [59] was over 100 µM, the TGI [5] was 24.6 µM and the TGI [7] was 42.4 µM. For the same compound, the TGI [11] was 22 µM, the TGI [12] was 18.1 µM and the TGI [13] was 18.8 µM. The TGI [14] was 87.8 µM, the TGI [15] was 4.76 µM and the TGI [17] was 34.5 µM. The TGI [18] was 82.5 µM, the TGI [60] was over 100 µM and the TGI [19] was 19.6 µM. For the same compound, the TGI [21] was 75.7 µM, the TGI [22] was 18.4 µM and the TGI [24] was 23 µM. The TGI [26] was 28.3 µM, the TGI [28] was 73.9 µM and the TGI [61] was 53.5 µM. It also gave a TGI [62] of over 100 µM, a TGI [63] of 27.7 µM and a TGI [64] of 26.8 µM. For the same compound, the TGI [29] was 15.7 µM, the TGI [30] was 50.5 µM and the TGI [31] was 49.9 µM. It also gave a TGI [32] of 15.4 µM, a TGI [33] of 51.4 µM and a TGI [65] of 72.3 µM. The TGI [35] was 35.6 µM, the TGI [36] was 28.2 µM and the TGI [37] was 42.4 µM. It also gave a TGI [66] of 58.5 µM, a TGI [38] of 35.3 µM and a TGI [39] of 25.4 µM. It also gave a TGI [40] of 76.2 µM, a TGI [41] of 42.4 µM and a TGI [42] of 22.6 µM. It also gave a TGI [43] of 30.3 µM, a TGI [44] of 40.8 µM and a TGI [45] of 31.4 µM. The TGI [46] was 47.5 µM, the TGI [47] was 37.5 µM and the TGI [48] was over 100 µM. For the same compound, the TGI [49] was 40.6 µM, the TGI [51] was 16 µM and the TGI [52] was 39.5 µM. For the same compound, the TGI [67] was over 100 µM, the TGI [53] was 41.8 µM and the TGI [54] was 66.8 µM. The TGI [55] was 32.7 µM, the TGI [56] was 20.3 µM and the TGI [57] was 1.8 µM.
